In one test the target is T1, VEGFR2 (Homo sapiens, UniProt P35968).
T1 construct: coding for the cytoplasmic domain, beginning with lysine 791 and including the termination codon; made in house; host or cells: Sf9 insect cells, baculovirus (pFastBacHis)
As to the kind of experiment: Inhibition against receptor tyrosine kinase activity (HTRF), VEGFR2. Particulars: His6-VEGFR2 cytoplasmic domain, biotin-poly(GT), HTRF; read-out: VEGFR2 kinase IC50. The test is classed as biochemical. On the procedure: This assay is used to determine inhibition of a test substance on tyrosine kinase activity. […] Expression in an appropriate expression system can produce a polypeptide with tyrosine kinase activity. […] The recombinant construct was transfected into insect cells (Spondoptea frugiperda9 (Sf9)) to prepare a recombinant Baculovirus.
For expression of the VEGFR2 tyrosine kinase, Sf9 cells were infected with the VEGFR2 recombinant virus and collected after 48 hours. The collected cells were rinsed with ice-cooled phosphate buffered saline (PBS) and then resuspended using 20 ml of ice-cooled Lysis Buffer (50 mM Tris-HCl (pH 8.5), 5 mM 2-mercaptoethanol, 100 mM KCl, 1 mM phenylmethylsulfonyl fluoride, 1% (v/v) NP-40) per 1.5×10^8 cells. The suspension was centrifuged at 12,000 rpm for 30 minutes at 4° C. and the supernatant was obtained. The supernatant was added to a Ni-NTA agarose column (3 ml, purchased from Qiagen) equilibrated with Buffer A {20 mM Tris-HCl (pH 8.5), 5 mM 2-mercaptoethanol, 500 mM KCl, 20 mM imidazole, 10% (v/v) glycerol}. The column was washed with 30 ml of Buffer A, and then with 6 ml of Buffer B {20 mM Tris-HCl (pH 8.5), 5 mM 2-mercaptoethanol, 1M KCl, 10% (v/v) glycerol}, and finally with 6 ml of Buffer A. After washing, it was eluted with 6 ml of Buffer C {20 mM Tris-HCl (pH 8.5), 5 mM 2-mercaptoethanol, 100 mM KCl, 100 mM imidazole, 10% (v/v) glycerol}. The eluate was placed on a dialysis membrane (purchased from Spectrum Laboratories) and dialyzed with a dialysis buffer {20 mM Tris-HCl (pH 7.5), 10% (v/v) glycerol, 1 mM dithiothreitol, 0.1 mM Na3VO4, 0.1 mM EGTA}. […] Using the same method for the cytoplasmic domains of FGFR1, PDGFRβ and HGFR yielded respective recombinant proteins fused with 6 histidine residues at the N-terminal (His6-FGFR1, His6-PDGFRβ or His6-HGFR).
The tyrosine kinase reaction was conducted as follows. […] Next, 10 μl of 4 μM ATP (diluted with distilled water) was added prior to incubation at 30° C. for 10 minutes, and then 10 μl of 500 mM EDTA (pH 8.0) was added.
The tyrosine phosphorylation rate for the biotin-poly(GT) was expressed as the delta F % value as described in the HTRF Standard Experiment Methods text by CIS Diagnostics Co. The delta F % value in the presence of the test substance was determined as a ratio (%) with the delta F % value with addition of His6-VEGFR2 in the absence of the test substance defined as 100% and the delta F % value in the absence of both the test substance and His6-VEGFR2 defined as 0%.
Background: Time-resolved FRET reads energy transfer from a long-lived donor to a nearby acceptor.

Test [1] deals with Human Umbilical Vein Endothelial Cells (HUVECs). Put plainly: Inhibition against sandwich tube formation by vascular endothelial cells, FGF2-stimulated. It is filed as cell-based. Particulars: HUVEC, 20 ng/ml FGF2 and 10 ng/ml EGF, 4th day after addition. The method, then: Human Umbilical Vein Endothelial Cells (HUVECs) were isolated according to a reported method (Shinseikagaku Jikken Koza [New Biochemistry Experiment Lectures], “Saibo Baiyo Gijutsu” [Cell Culturing Techniques], p. 197-202), • and were cultured in a 5% CO2 incubator (37° C.) using EGM-2 medium (purchased from Clonetics Corp.) until the cells reached confluency.
An ice-cooled mixture of collagen: 5×RPMI 1640: reconstitution buffer (all purchased from Nitta Gelatin, Inc.) at 7:2:1 was dispensed at 0.4 ml into each well of a 24-well plate. After the solution was gelled by being stationed for 40 minutes in a 5% CO2 incubator (37° C.), HUVEC cell suspension was added at 0.4 ml to each well (using 1 to 1.2×10^5 cells, though the numbers of cells differ slightly according to the HUVEC lot), the HUVEC cell suspension being in human endothelial serum free medium (SFM, purchased from GIBCO BRL) containing added angiogenesis factors [20 ng/ml FGF2 (purchased from GIBCO BRL) and 10 ng/ml EGF (purchased from GIBCO BRL), or 25 ng/ml VEGF (purchased from Wako Pure Chemical Industries Co., Ltd.) and 10 ng/ml EGF, or 30 ng/ml HGF (purchased from R&D Co.) and 10 ng/ml EGF], and cultured overnight in a 5% CO2 incubator (37° C.). On the following day, the medium on the upper layer was aspirated off, and then 0.4 ml of an ice-cooled mixture of collagen: 5×RPMI 1640: reconstitution buffer (all purchased from Nitta Gelatin, Inc.) at 7:2:1 was superposed into each well prior to stationing for 4 hours in a 5% CO2 incubator (37° C.) for gelling. After adding 1.5 ml of an SFM solution containing each of the aforementioned angiogenesis factors and a diluted test substance onto the upper layer, culturing was performed in a 5% CO2 incubator (37° C.). Upon aspirating off the culture supernatant in each well on the 4th day after addition of the test substance, 0.4 ml of a 3.3 mg/ml MTT solution dissolved in PBS (purchased from Sigma Corp.) was added to each well and culturing was performed for approximately 2 hours in a 5% CO2 incubator (37° C.). The tubes formed in the collagen gel of each well were stained by MTT, the tube images were loaded into a computer (Macintosh), and the total length of the tubes was determined by image analysis software “MacScope” (purchased from Mitani Corp.). The ratio of the total length of the tubes formed in the well containing the test substance with respect to the total length of the tubes formed in the well containing no test substance was expressed as a percentage, and the concentration of each test substance required for 50% inhibition of tube formation (IC50) was determined from the ratio value.

The record followed here is patent US20060004029A1, “Nitrogen-containing aromatic derivatives” (priority 2003, published 2006).

T1 sequence (P35968 786-1356 limits assumed): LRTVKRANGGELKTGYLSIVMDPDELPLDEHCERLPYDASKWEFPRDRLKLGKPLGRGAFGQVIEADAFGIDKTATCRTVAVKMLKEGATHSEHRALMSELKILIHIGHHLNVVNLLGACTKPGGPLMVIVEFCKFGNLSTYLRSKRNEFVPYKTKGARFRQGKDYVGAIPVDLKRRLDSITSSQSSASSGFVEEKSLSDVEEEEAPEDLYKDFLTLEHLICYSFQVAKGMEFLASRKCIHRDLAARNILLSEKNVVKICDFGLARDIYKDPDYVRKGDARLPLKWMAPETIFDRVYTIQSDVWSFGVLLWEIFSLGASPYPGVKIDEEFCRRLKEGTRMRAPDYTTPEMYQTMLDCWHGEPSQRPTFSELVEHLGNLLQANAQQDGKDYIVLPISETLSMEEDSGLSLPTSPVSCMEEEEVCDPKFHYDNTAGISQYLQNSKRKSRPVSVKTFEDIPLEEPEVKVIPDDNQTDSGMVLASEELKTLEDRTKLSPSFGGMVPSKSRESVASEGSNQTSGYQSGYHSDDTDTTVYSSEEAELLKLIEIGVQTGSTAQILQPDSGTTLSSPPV

With `CNC(=O)n1ccc2cc(Oc3ccnc(NC(=O)N4CCC(O)CC4)c3)ccc21` [Example 39, N1-Methyl-5-(2-((4-hydroxypiperidino)carbonyl)amino-4-pyridyl)oxy-1H-1-indolecarboxamide], the results for the IC50 (on VEGFR2; in test [1]) were 4.5 nM and 470 nM, respectively.

For the molecule `CNC(=O)n1ccc2cc(Oc3ccnc(NC(=O)N4CCC(C)(O)CC4)c3)ccc21` [Example 41, 5-(2-(((4-Hydroxy-4-methylpiperidin-1-yl)carbonyl)amino)pyridin-4-yloxy)-1H-1-indole-1-carboxylic acid methylamide], the results for the half-inhibitory concentration (IC50) (on VEGFR2; in test [1]) were 6.1 nM and 250 nM, respectively.

As for `CNC(=O)n1ccc2cc(Oc3ccnc(NC(=O)N4CCC(N5CCCC5)CC4)c3)ccc21` [Example 46, N1-Methyl-5-(2-(((4-(pyrrolidin-1-yl)piperidin-1-yl)carbonyl)amino)pyridin-4-yloxy)-1H-1-indolecarboxamide], the IC50 (as a rule, the midpoint of a concentration-inhibition curve) at VEGFR2 worked out at 32 nM; in test [1], 470 nM.

With `CNC(=O)n1ccc2cc(Oc3ccnc(NC(=O)N4CCC(N5CCCCC5)CC4)c3)ccc21` [Example 47, N1-Methyl-5-(2-(((4-(piperidin-1-yl)piperidin-1-yl)carbonyl)amino)pyridin-4-yloxy)-1H-1-indolecarboxamide], the IC50 at VEGFR2 was 40 nM; in test [1] it was 120 nM.

On to `CNC(=O)n1ccc2cc(Oc3ccnc(NC(=O)N4CCOCC4)c3)ccc21` [Example 53, N4-(4-(1-(Methylamino)carbonyl-1H-5-indolyl)oxy-2-pyridyl)-4-morpholinecarboxamide], for which the IC50 was 3.8 nM on VEGFR2 and 440 nM in test [1].
